For assay [1], the system named is whole blood diluted with physiological saline 200 times. The assay can be described thus: Extraction efficiency test of ATP, whole blood. It is filed as cell-based. The following applies: Whole blood diluted 200 times. As to the method:
(§1) The extraction efficiency of the release reagent based on a quaternary ethoxylated amine and an ethoxylated amine mixture was also tested against the boiling tris-EDTA buffer and the perchloric acid extraction methods. The samples consisted of whole blood diluted with physiological saline 200 times, a suspension of E. coli bacteria in concentration of one million cells per milliliter, and a suspension of green algae, Chlorella sp. […]
(§2) Measurement of ATP by bioluminescence: 100 microliter aliquots of extracted sample solution were pipetted into transparent glass cuvettes and these were placed into the light-tight reaction chamber of a photon counter. […] The light emission was integrated for 10 seconds and the results read on the digital display as relative light units. The relative light units were converted to ATP by internal standardization whereby a known quantity of ATP standard was added into an aliquot of the extracted sample and measured as above. […] By subtracting the reading of the sample from that of the sample+added ATP standard a conversion factor for relative light units to ATP was calculated.

Assay [2] relates to E. coli bacteria. The assay can be described thus: Extraction efficiency test of ATP, E. coli suspension. The class given is cell-based. The following applies: one million cells per milliliter. As to the method:
as §1, §2

Molecules are shown by their SMILES.

Take `[O-][Cl+3]([O-])([O-])O` [Perchloric acid method, perchloric acid]: the ATP extraction efficiency is listed as 7% in assay [1] and 3% in assay [2].

(Values after US20050042661A1, “Use of novel compounds to release nucleotides from living cells” (priority 2003, published 2005).)
